Molecular target: T1, ER-alpha (WT) (Homo sapiens, UniProt P03372)
T1 construct: endogenous in cells; host or cells: MCF7 breast cancer cells
T1 sequence (P03372 1-595): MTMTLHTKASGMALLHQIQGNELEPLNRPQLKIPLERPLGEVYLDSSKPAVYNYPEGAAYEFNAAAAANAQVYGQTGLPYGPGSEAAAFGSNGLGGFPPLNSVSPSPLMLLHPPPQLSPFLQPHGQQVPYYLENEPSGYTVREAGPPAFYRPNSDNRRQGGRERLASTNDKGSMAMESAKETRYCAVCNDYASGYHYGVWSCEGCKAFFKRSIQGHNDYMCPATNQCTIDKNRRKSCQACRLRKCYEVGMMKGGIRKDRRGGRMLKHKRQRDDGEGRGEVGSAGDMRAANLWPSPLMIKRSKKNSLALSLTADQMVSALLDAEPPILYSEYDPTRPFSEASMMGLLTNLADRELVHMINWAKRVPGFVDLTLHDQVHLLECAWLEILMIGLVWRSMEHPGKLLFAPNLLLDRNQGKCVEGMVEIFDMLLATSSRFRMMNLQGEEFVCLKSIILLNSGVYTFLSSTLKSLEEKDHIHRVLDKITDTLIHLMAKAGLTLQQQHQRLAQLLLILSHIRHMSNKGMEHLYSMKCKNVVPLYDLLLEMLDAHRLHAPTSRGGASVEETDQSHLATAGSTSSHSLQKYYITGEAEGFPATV
Test: Breast Cancer Cell ERa High Content Fluorescence Imaging Degradation Assay (MCF7 HCS)
Type: cell-based
Details: MCF7 breast cancer cells, 4 hours incubation; for EC50: inflexion point of curve; for ERalpha (WT) MCF7 HCS (S inf): plateau of the maximal effect, DMSO and Fulvestrant define 0% and 100% changes in ESR1

Compound | EC50 | ERalpha (WT) MCF7 HCS (S inf)
C[C@@H]1Cc2cc(CO)ccc2[C@@H](c2ccc(OCCN3CC(CF)C3)cc2)N1CC(F)(F)CO [Example 172, 2,2-Difluoro-3-((1R,3R)-1-(4-(2-(3-(fluoromethyl)azetidin-1-yl)ethoxy)phenyl)-6-(hydroxymethyl)-3-methyl-3,4-dihydroisoquinolin-2(1H)-yl)propan-1-ol] | 0.14 nM | −99%
CC(=O)c1ccc2c(c1)C[C@H](C)N(CC(F)(F)CO)[C@H]2c1ccc(OCCN2CC(CF)C2)cc1 [Example 176, 1-((1S,3S)-2-(2,2-Difluoro-3-hydroxypropyl)-1-(4-(2-(3-(fluoromethyl)azetidin-1-yl)ethoxy)phenyl)-3-methyl-1,2,3,4-tetrahydroisoquinolin-6-yl)ethanone] | > 100 nM | –
C[C@H](O)c1ccc2c(c1)C[C@@H](C)N(CC(F)(F)CO)[C@@H]2c1ccc(OCCN2CC(CF)C2)cc1 [Example 178, 2,2-Difluoro-3-((1R,3R)-1-(4-(2-(3-(Fluoromethyl)azetidin-1-yl)ethoxy)phenyl)-6-((S)-1-hydroxyethyl)-3-methyl-3,4-dihydroisoquinolin-2(1H)-yl)propan-1-ol] | > 100 nM | –

More lines, now with the values ahead:

EC50 | ERalpha (WT) MCF7 HCS (S inf) | Compound
0.96 nM | −101% | C[C@H]1Cc2cc(O)ccc2[C@H](c2ccc(OCCN3CC(CF)C3)cc2)N1CC(F)(F)CO [Example 165, (1S,3S)-2-(2,2-Difluoro-3-hydroxypropyl)-1-(4-(2-(3-(fluoromethyl)azetidin-1-yl)ethoxy)phenyl)-3-methyl-1,2,3,4-tetrahydroisoquinolin-6-ol]
0.066 nM | −105% | C[C@@H]1Cc2cc(O)ccc2[C@@H](c2ccc(OCCN3CC(CF)C3)cc2)N1CC(F)(F)CO [Example 166, (1R,3R)-2-(2,2-Difluoro-3-hydroxypropyl)-1-(4-(2-(3-(fluoromethyl)azetidin-1-yl)ethoxy)phenyl)-3-methyl-1,2,3,4-tetrahydroisoquinolin-6-ol]
– | −73.5% | Oc1ccc2c(c1)CC[C@H](c1ccccc1)[C@@H]2c1ccc(OCCN2CCCC2)cc1 [lasofoxifene, (5R,6S)-6-phenyl-5-(4-(2-(pyrrolidin-1-yl)ethoxy)phenyl)-5,6,7,8-tetrahydronaphthalen-2-ol, reference compound]
